Experimental data from patent US20040167034A1, “Emulsion and dispersion formulations and method” (priority 2001, published 2004).

Key:
[1] = background statement; cited from earlier work
[2] = Stability of closantel and levamisole combination at 30° C. (HPLC); assay type: physicochemical; conditions: closantel and levamisole combination incubated at 30° C.
Experimental: Stability of Closantel and Levamisole Combination at 30° C.
The mixture was analysed by HPLC at times zero, 3 and 12 months.

[3] = Pharmacokinetics of silymarin (plasma silybin a and b, HPLC); conditions: in vivo, 260 mg
Experimental: Pharmacokinetics of silymarin administered in various delivery systems, comparing a powdered extract of silymarin containing 28% silybin a and b and a silymarin:lecithin complex as described in Example 2 of silymarin containing the same amount of silybin a and b.
Silymarin was administered at a dose of 260 mg silybin a and b.
Blood samples were collected at 0, 2, 4, and 6 hours after administration and analysed by HPLC.
Silybin a and b were analysed as conjugated and unconjugated silybin a and b.

Molecule	absorption [1]	content at 0 months [2] [g %]	content at 3 months [2] [g %]	content at 12 months [2] [g %]	AUC of conjugated silybin A and B [3] [ng/h/mL]	AUC of free silybin A and B [3] [ng/h/mL]
[Cr] [chromium]	1-3%	–	–	–	–	–
Cc1cc(C(C#N)c2ccc(Cl)cc2)c(Cl)cc1NC(=O)c1cc(I)cc(I)c1O (stereo not drawn) [closantel]	–	3.75	3.72	3.69	–	–
c1ccc([C@H]2CN3CCSC3=N2)cc1 [levamisole]	–	3.21	3.19	3.17	–	–
Silymarin	–	–	–	–	191	6
